Assay results taken from ChEMBL document CHEMBL1201862, “PubChem BioAssay data set” (2004).
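Briefly, cells in 96-well plates were exposed to five compound concentrations for 48 h, and endpoints were estimated by linear interpolation. Here, GI50 denotes the concentration required for 50% inhibition of growth.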 The source made the active and inactive calls. Rule as the data show it: active = GI50 up to about 1.1 µM and inactive = higher.

How the values were obtained:
Assay in all cases: DTP human tumour cell line panel, 48 h
786-0 = test system: 786-0
A498 = test system: A498
A549 = test system: A549
ACHN = test system: ACHN
BT-549 = test system: BT-549
CAKI-1 = test system: CAKI-1
CCRF-CEM = test system: CCRF-CEM
COLO 205 = test system: COLO 205
DU-145 = test system: DU-145
EKVX = test system: EKVX
HCC 2998 = test system: HCC 2998
HCT-116 = test system: HCT-116
HCT-15 = test system: HCT-15
HL-60 = test system: HL-60
HOP-62 = test system: HOP-62
HOP-92 = test system: HOP-92
HT-29 = test system: HT-29
Hs-578T = test system: Hs-578T
IGROV-1 = test system: IGROV-1
K562 = test system: K562
KM12 = test system: KM12
LOX IMVI = test system: LOX IMVI
M14 = test system: M14
MCF7 = test system: MCF7
MDA-MB-231 = test system: MDA-MB-231
MDA-MB-435 = test system: MDA-MB-435
MDA-N = test system: MDA-N
MOLT-4 = test system: MOLT-4
Malme-3M = test system: Malme-3M
NCI-H226 = test system: NCI-H226
NCI-H23 = test system: NCI-H23
NCI-H460 = test system: NCI-H460
NCI-H522 = test system: NCI-H522
NCI/ADR-RES = test system: NCI/ADR-RES
OVCAR-3 = test system: OVCAR-3
OVCAR-4 = test system: OVCAR-4
OVCAR-5 = test system: OVCAR-5
OVCAR-8 = test system: OVCAR-8
PC-3 = test system: PC-3
RPMI-8226 = test system: RPMI-8226
RXF 393 = test system: RXF 393
SF-268 = test system: SF-268
SF-295 = test system: SF-295
SF-539 = test system: SF-539
SK-MEL-28 = test system: SK-MEL-28
SK-MEL-2 = test system: SK-MEL-2
SK-MEL-5 = test system: SK-MEL-5
SK-OV-3 = test system: SK-OV-3
SN12C = test system: SN12C
SNB-19 = test system: SNB-19
SNB-75 = test system: SNB-75
SR = test system: SR
SW-620 = test system: SW-620
T47D = test system: T47D
TK-10 = test system: TK-10
U-251 = test system: U-251
UACC-257 = test system: UACC-257
UACC-62 = test system: UACC-62
UO-31 = test system: UO-31

SMILES: CCOP(=O)(OCC)C(Nc1ccc(F)cc1)c1ccccc1 (stereo not given)
- GI50 (786-0): > 100 µM (inactive)
- GI50 (A498): > 100 µM (inactive)
- GI50 (A549): > 100 µM (inactive)
- GI50 (ACHN): > 100 µM (inactive)
- GI50 (BT-549): 79.6 µM (inactive)
- GI50 (CAKI-1): > 100 µM (inactive)
- GI50 (CCRF-CEM): > 100 µM (inactive)
- GI50 (COLO 205): > 100 µM (inactive)
- GI50 (DU-145): > 100 µM (inactive)
- GI50 (EKVX): > 100 µM (inactive)
- GI50 (HCC 2998): > 100 µM (inactive)
- GI50 (HCT-116): > 100 µM (inactive)
- GI50 (HCT-15): > 100 µM
- GI50 (HL-60): 77.4 µM (inactive)
- GI50 (HOP-62): > 100 µM (inactive)
- GI50 (HOP-92): 94.6 µM (inactive)
- GI50 (HT-29): > 100 µM (inactive)
- GI50 (Hs-578T): > 100 µM (inactive)
- GI50 (IGROV-1): > 100 µM (inactive)
- GI50 (K562): 57.9 µM (inactive)
- GI50 (KM12): > 100 µM (inactive)
- GI50 (LOX IMVI): > 100 µM (inactive)
- GI50 (M14): > 100 µM (inactive)
- GI50 (MCF7): > 100 µM (inactive)
- GI50 (MDA-MB-231): > 100 µM (inactive)
- GI50 (MDA-MB-435): > 100 µM (inactive)
- GI50 (MDA-N): 79.3 µM (inactive)
- GI50 (MOLT-4): 92.9 µM (inactive)
- GI50 (Malme-3M): > 100 µM (inactive)
- GI50 (NCI-H226): > 100 µM (inactive)
- GI50 (NCI-H23): > 100 µM (inactive)
- GI50 (NCI-H460): > 100 µM (inactive)
- GI50 (NCI-H522): 56.5 µM (inactive)
- GI50 (NCI/ADR-RES): > 100 µM (inactive)
- GI50 (OVCAR-3): > 100 µM (inactive)
- GI50 (OVCAR-4): > 100 µM (inactive)
- GI50 (OVCAR-5): > 100 µM (inactive)
- GI50 (OVCAR-8): > 100 µM (inactive)
- GI50 (PC-3): 32 µM (inactive)
- GI50 (RPMI-8226): > 100 µM (inactive)
- GI50 (RXF 393): > 100 µM (inactive)
- GI50 (SF-268): > 100 µM (inactive)
- GI50 (SF-295): > 100 µM (inactive)
- GI50 (SF-539): > 100 µM (inactive)
- GI50 (SK-MEL-28): > 100 µM (inactive)
- GI50 (SK-MEL-2): > 100 µM (inactive)
- GI50 (SK-MEL-5): > 100 µM (inactive)
- GI50 (SK-OV-3): > 100 µM (inactive)
- GI50 (SN12C): 43.8 µM (inactive)
- GI50 (SNB-19): > 100 µM (inactive)
- GI50 (SNB-75): > 100 µM (inactive)
- GI50 (SR): 97.7 µM (inactive)
- GI50 (SW-620): > 100 µM (inactive)
- GI50 (T47D): 35.1 µM (inactive)
- GI50 (TK-10): > 100 µM (inactive)
- GI50 (U-251): > 100 µM (inactive)
- GI50 (UACC-257): > 100 µM (inactive)
- GI50 (UACC-62): > 100 µM (inactive)
- GI50 (UO-31): 82.2 µM (inactive)

SMILES: COc1c(C(=O)O)cccc1-c1cccc(C(=O)NCCN(CCNC(=O)c2cccc(-c3cccc(C(=O)O)c3OC)c2OC)CCNC(=O)c2cccc(-c3cccc(C(=O)O)c3OC)c2OC)c1OC
- GI50 (786-0): 31.6 µM (inactive)
- GI50 (A498): 31.8 µM (inactive)
- GI50 (A549): 49.5 µM (inactive)
- GI50 (ACHN): 50.5 µM (inactive)
- GI50 (BT-549): 52.1 µM (inactive)
- GI50 (CAKI-1): 51.6 µM (inactive)
- GI50 (CCRF-CEM): 35.2 µM (inactive)
- GI50 (COLO 205): 20.2 µM (inactive)
- GI50 (DU-145): 39 µM (inactive)
- GI50 (EKVX): 64.6 µM (inactive)
- GI50 (HCC 2998): 31.7 µM (inactive)
- GI50 (HCT-116): 33.4 µM (inactive)
- GI50 (HCT-15): 65.2 µM
- GI50 (HL-60): 18.2 µM (inactive)
- GI50 (HOP-62): 58.9 µM (inactive)
- GI50 (HOP-92): 67.1 µM (inactive)
- GI50 (HT-29): 20.7 µM (inactive)
- GI50 (Hs-578T): 28 µM (inactive)
- GI50 (IGROV-1): 39.8 µM (inactive)
- GI50 (K562): 24.3 µM (inactive)
- GI50 (KM12): 18.6 µM (inactive)
- GI50 (LOX IMVI): 32.3 µM (inactive)
- GI50 (MCF7): 37.8 µM (inactive)
- GI50 (MDA-MB-231): 37.6 µM (inactive)
- GI50 (MDA-MB-435): 11.4 µM (inactive)
- GI50 (MDA-N): 5.58 µM (inactive)
- GI50 (MOLT-4): 36.7 µM (inactive)
- GI50 (Malme-3M): 23.4 µM (inactive)
- GI50 (NCI-H226): 32.7 µM (inactive)
- GI50 (NCI-H23): 64.7 µM (inactive)
- GI50 (NCI-H460): 25.4 µM (inactive)
- GI50 (NCI-H522): 33.3 µM (inactive)
- GI50 (NCI/ADR-RES): > 100 µM (inactive)
- GI50 (OVCAR-3): 18.5 µM (inactive)
- GI50 (OVCAR-4): 60.5 µM (inactive)
- GI50 (OVCAR-5): 28.6 µM (inactive)
- GI50 (OVCAR-8): 63 µM (inactive)
- GI50 (PC-3): 27.9 µM (inactive)
- GI50 (RPMI-8226): 23.2 µM (inactive)
- GI50 (RXF 393): 28.6 µM (inactive)
- GI50 (SF-268): 74.8 µM (inactive)
- GI50 (SF-295): 40.5 µM (inactive)
- GI50 (SF-539): 37.2 µM (inactive)
- GI50 (SK-MEL-28): 52.5 µM (inactive)
- GI50 (SK-MEL-2): 31.8 µM (inactive)
- GI50 (SK-MEL-5): 4.84 µM (inactive)
- GI50 (SK-OV-3): 33 µM (inactive)
- GI50 (SN12C): 29.4 µM (inactive)
- GI50 (SNB-19): 52 µM (inactive)
- GI50 (SNB-75): 25.9 µM (inactive)
- GI50 (SR): 10.7 µM (inactive)
- GI50 (SW-620): 29.6 µM (inactive)
- GI50 (T47D): 43 µM (inactive)
- GI50 (TK-10): > 100 µM (inactive)
- GI50 (U-251): 28.5 µM (inactive)
- GI50 (UACC-257): 62.7 µM (inactive)
- GI50 (UACC-62): 25.8 µM (inactive)
- GI50 (UO-31): > 100 µM (inactive)

SMILES: COC1=C(OC)C23CCc4ccc(OC)c(O)c4C2(CCN3)CC1=O (stereo not given)
- GI50 (786-0): > 100 µM (inactive)
- GI50 (A498): > 100 µM (inactive)
- GI50 (A549): > 100 µM (inactive)
- GI50 (ACHN): > 100 µM (inactive)
- GI50 (BT-549): > 100 µM (inactive)
- GI50 (CAKI-1): > 100 µM (inactive)
- GI50 (CCRF-CEM): > 100 µM (inactive)
- GI50 (COLO 205): > 100 µM (inactive)
- GI50 (DU-145): > 100 µM (inactive)
- GI50 (EKVX): > 100 µM (inactive)
- GI50 (HCC 2998): > 100 µM (inactive)
- GI50 (HCT-116): > 100 µM (inactive)
- GI50 (HCT-15): > 100 µM
- GI50 (HL-60): > 100 µM (inactive)
- GI50 (HOP-62): > 100 µM (inactive)
- GI50 (HOP-92): > 100 µM (inactive)
- GI50 (HT-29): > 100 µM (inactive)
- GI50 (Hs-578T): > 100 µM (inactive)
- GI50 (IGROV-1): > 100 µM (inactive)
- GI50 (K562): > 100 µM (inactive)
- GI50 (KM12): > 100 µM (inactive)
- GI50 (LOX IMVI): > 100 µM (inactive)
- GI50 (M14): > 100 µM (inactive)
- GI50 (MCF7): > 100 µM (inactive)
- GI50 (MDA-MB-231): > 100 µM (inactive)
- GI50 (MDA-MB-435): > 100 µM (inactive)
- GI50 (MDA-N): > 100 µM (inactive)
- GI50 (MOLT-4): > 100 µM (inactive)
- GI50 (Malme-3M): > 100 µM (inactive)
- GI50 (NCI-H226): > 100 µM (inactive)
- GI50 (NCI-H23): > 100 µM (inactive)
- GI50 (NCI-H460): > 100 µM (inactive)
- GI50 (NCI-H522): > 100 µM (inactive)
- GI50 (NCI/ADR-RES): > 100 µM (inactive)
- GI50 (OVCAR-3): > 100 µM (inactive)
- GI50 (OVCAR-4): > 100 µM (inactive)
- GI50 (OVCAR-5): > 100 µM (inactive)
- GI50 (OVCAR-8): > 100 µM (inactive)
- GI50 (PC-3): > 100 µM (inactive)
- GI50 (RPMI-8226): > 100 µM (inactive)
- GI50 (RXF 393): > 100 µM (inactive)
- GI50 (SF-268): > 100 µM (inactive)
- GI50 (SF-295): > 100 µM (inactive)
- GI50 (SF-539): > 100 µM (inactive)
- GI50 (SK-MEL-28): > 100 µM (inactive)
- GI50 (SK-MEL-2): > 100 µM (inactive)
- GI50 (SK-MEL-5): > 100 µM (inactive)
- GI50 (SK-OV-3): > 100 µM (inactive)
- GI50 (SN12C): > 100 µM (inactive)
- GI50 (SNB-19): > 100 µM (inactive)
- GI50 (SNB-75): > 100 µM (inactive)
- GI50 (SR): > 100 µM (inactive)
- GI50 (SW-620): > 100 µM (inactive)
- GI50 (T47D): > 100 µM (inactive)
- GI50 (TK-10): > 100 µM (inactive)
- GI50 (U-251): > 100 µM (inactive)
- GI50 (UACC-257): > 100 µM (inactive)
- GI50 (UACC-62): > 100 µM (inactive)
